Measurements published in patent US10023593B2, “ALK kinase inhibitor, and preparation method and uses thereof” (BEIJING PEARL BIOTECHNOLOGY LIMITED LIABILITY COMPANY, priority 2014, dated 2018).

How the values were obtained:
[1] = target: cytochrome P450 2C9 (Homo sapiens, UniProt P11712); test: Inhibitory activity on cytochrome P450 2C9; type: in vitro ADME; conditions: no significant inhibition
[2] = target: T1, cytochrome P450 1A2 (Homo sapiens, UniProt P05177); test: Inhibitory activity on cytochrome P450 1A2; type: in vitro ADME; conditions: no significant inhibition
T1 sequence (P05177 1-516): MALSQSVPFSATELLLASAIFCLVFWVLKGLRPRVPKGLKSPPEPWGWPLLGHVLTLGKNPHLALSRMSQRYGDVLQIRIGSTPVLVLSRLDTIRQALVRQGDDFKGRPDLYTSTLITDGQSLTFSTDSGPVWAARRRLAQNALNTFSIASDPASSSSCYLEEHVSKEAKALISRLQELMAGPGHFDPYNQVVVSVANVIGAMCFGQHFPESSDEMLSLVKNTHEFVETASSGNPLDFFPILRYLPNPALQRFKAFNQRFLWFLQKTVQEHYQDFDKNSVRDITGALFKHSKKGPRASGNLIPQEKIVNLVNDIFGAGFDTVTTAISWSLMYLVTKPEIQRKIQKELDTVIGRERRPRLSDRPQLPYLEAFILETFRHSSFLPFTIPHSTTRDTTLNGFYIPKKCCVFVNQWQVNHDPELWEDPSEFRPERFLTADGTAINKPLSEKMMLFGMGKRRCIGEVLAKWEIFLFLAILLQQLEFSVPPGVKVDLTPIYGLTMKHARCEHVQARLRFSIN

[3] = target: cytochrome P450 2C19 (Homo sapiens, UniProt P33261); test: Inhibitory activity on cytochrome P450 2C19; type: in vitro ADME; conditions: no significant inhibition
[4] = target: cytochrome P450 2D6 (Homo sapiens, UniProt P10635); test: Inhibitory activity on cytochrome P450 2D6; type: in vitro ADME; conditions: no significant inhibition
[5] = target: T2, Wild Type ALK kinase (Homo sapiens, UniProt Q9UM73); test: HTRF KinEASE-TK assay, inhibitory activity on wild type ALK kinase; type: biochemical; conditions: wild type ALK 1 ng/μl, substrate 1 μM, 30° C. 35 minutes, read-out: Inhibition on ALK kinases (wildtype), IC50
T2 construct: purchased Sino-US Crown Bioscience, Inc. batch number ALK 20110607
Method in brief: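 ALK kinase at 1 ng/μl and substrate at 1 μM were reacted with compound (1% DMSO) in buffer with 5 mM MgCl2 and 1 mM DTT for 35 min at 30 °C. HTRF detection used the 665/615 ratio, normalised to no-compound wells and to 10.4 μM LDK-378 wells. IC50 came from a concentration-response fit.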

[6] = target: cytochrome P450 3A4 (Homo sapiens, UniProt P08684); test: Inhibitory activity on cytochrome P450 3A4; type: in vitro ADME; conditions: no significant inhibition
[7] = system: Karpas-299 cell line; test: CellTiter-Glo cell proliferation inhibition on Karpas-299 cell line; type: cell-based; conditions: Homo sapiens, 96 h, Karpas-299 cells, 5000 cells/well, 4 days drug treatment
Method in brief: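 CellTiter-Glo luminescence measured after 4-day compound exposure (0.5% DMSO final) of Karpas-299 cells seeded at 5000/well in RPMI-1640 with 10% FBS, 37 °C, 5% CO2. IC50 derived from percent inhibition relative to vehicle wells.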

Chain of cytochrome P450 2C9 (P11712 whole entry): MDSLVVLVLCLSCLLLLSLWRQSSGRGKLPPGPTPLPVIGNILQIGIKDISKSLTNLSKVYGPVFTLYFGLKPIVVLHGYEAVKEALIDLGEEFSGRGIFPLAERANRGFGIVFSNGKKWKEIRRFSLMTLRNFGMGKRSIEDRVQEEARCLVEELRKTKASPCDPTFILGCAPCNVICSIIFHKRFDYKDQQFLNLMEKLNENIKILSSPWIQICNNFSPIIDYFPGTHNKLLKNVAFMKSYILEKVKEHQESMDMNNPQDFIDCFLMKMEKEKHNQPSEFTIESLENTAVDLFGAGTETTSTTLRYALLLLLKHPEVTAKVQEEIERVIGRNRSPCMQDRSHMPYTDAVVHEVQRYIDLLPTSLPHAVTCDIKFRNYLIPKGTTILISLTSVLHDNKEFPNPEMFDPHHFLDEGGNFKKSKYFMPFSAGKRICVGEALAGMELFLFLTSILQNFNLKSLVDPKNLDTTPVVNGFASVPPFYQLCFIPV
T2 sequence (Q9UM73 19-1620): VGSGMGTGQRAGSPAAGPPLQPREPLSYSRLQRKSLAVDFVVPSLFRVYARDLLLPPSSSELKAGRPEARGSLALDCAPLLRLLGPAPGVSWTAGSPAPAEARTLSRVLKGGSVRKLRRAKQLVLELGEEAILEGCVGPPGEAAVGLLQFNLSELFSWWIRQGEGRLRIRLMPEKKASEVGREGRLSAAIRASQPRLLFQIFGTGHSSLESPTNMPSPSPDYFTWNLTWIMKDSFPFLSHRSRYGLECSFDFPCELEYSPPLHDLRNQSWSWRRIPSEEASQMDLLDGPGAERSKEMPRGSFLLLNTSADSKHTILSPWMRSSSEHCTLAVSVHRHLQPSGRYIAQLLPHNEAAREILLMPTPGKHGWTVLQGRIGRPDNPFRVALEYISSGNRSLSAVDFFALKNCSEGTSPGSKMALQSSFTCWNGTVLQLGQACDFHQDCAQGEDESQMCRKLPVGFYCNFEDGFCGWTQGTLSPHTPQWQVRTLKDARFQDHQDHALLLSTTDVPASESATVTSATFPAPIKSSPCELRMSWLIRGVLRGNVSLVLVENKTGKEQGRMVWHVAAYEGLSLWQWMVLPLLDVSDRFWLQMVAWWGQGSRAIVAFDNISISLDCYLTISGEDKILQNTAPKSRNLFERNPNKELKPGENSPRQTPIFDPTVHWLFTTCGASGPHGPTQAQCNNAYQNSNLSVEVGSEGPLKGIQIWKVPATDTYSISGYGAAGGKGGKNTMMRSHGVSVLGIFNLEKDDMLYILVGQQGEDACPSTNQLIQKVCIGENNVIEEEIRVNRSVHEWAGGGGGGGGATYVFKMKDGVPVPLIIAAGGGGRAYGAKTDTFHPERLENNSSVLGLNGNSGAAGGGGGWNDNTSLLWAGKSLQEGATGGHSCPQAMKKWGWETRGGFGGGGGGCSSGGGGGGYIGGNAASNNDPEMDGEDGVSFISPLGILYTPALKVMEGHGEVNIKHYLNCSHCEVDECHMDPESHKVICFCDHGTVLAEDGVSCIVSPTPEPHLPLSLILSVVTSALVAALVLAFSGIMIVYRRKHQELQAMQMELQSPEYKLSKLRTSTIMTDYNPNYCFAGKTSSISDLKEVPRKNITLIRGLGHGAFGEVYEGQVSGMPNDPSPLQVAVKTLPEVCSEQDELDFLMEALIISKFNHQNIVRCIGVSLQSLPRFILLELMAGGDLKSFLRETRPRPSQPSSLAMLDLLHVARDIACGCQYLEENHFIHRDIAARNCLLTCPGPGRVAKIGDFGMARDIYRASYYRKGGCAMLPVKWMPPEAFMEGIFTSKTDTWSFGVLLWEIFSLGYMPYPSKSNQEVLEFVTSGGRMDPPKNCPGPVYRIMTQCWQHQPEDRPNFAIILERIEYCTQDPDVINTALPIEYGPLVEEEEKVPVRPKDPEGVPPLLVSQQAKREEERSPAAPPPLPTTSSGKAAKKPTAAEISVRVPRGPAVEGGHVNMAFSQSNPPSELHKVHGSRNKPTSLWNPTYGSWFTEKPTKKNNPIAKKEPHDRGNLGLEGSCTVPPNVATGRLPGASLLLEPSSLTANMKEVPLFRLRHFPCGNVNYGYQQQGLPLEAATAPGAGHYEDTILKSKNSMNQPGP
Chain of cytochrome P450 2C19 (P33261 whole entry): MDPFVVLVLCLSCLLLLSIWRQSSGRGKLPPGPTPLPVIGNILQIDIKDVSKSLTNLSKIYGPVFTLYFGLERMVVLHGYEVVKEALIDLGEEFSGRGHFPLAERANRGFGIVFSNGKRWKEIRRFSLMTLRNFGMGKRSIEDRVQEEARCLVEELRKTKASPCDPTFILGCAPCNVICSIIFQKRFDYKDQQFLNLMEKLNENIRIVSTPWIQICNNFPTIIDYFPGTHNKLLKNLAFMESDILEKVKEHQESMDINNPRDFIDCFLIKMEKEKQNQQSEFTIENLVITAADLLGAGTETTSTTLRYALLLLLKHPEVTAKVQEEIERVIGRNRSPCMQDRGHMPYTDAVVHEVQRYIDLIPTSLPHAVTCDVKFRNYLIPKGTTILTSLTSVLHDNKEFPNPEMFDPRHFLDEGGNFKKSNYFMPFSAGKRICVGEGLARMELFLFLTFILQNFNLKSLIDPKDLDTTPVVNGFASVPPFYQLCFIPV
Chain of cytochrome P450 3A4 (P08684 whole entry): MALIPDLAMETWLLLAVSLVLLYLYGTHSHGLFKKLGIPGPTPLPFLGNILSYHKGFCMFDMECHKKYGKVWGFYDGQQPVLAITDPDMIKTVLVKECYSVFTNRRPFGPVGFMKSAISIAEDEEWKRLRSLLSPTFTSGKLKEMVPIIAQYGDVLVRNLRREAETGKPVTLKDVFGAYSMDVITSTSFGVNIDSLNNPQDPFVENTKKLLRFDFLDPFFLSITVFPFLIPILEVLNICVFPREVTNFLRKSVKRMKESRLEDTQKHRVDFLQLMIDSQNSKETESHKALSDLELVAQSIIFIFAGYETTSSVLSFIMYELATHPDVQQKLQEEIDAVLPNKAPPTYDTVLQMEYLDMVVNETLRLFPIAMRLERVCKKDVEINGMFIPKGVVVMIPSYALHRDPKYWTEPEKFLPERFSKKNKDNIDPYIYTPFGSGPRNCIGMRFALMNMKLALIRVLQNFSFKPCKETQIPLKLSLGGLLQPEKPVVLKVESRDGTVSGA
Chain of cytochrome P450 2D6 (P10635 whole entry): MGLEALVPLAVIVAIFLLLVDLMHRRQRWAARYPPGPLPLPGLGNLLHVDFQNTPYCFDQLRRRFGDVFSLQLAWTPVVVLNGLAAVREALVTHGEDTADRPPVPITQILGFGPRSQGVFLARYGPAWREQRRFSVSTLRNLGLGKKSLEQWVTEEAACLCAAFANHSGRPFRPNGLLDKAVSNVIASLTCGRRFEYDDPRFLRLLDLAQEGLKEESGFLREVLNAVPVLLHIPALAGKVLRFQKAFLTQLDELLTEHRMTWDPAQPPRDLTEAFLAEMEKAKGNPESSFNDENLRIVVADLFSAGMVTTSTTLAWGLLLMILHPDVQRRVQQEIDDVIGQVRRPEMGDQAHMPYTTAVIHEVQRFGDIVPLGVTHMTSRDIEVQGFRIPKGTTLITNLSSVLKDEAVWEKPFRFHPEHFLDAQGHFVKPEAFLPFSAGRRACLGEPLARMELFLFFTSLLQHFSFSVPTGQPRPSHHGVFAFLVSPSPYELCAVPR

IC50 [1]	IC50 [2]	IC50 [3]	IC50 [4]	IC50 [5]	IC50 [6]	IC50 [7]	Structure (SMILES)
> 10 µM	> 10 µM	> 10 µM	> 10 µM	0.009 µM	> 10 µM	0.018 µM	Cc1cc(Nc2ncc(Cl)c(Nc3cn(C)nc3S(=O)(=O)C(C)C)n2)c(OC2CC2)cc1C1CCN(S(C)(=O)=O)CC1 [Final product 167, 5-chloro-N^2-(2-cyclopropoxy-5-methyl-4-(1-methanesulfonyl-piperidin-4-yl)-phenyl)-N^4-(3-(isopropylsulfonyl)-1-methyl-1H-pyrazol-4-yl)pyrimidin-2,4-diamine]
> 10 µM	> 10 µM	> 10 µM	> 10 µM	0.007 µM	> 10 µM	0.007 µM	CC(=O)N1CCN([C@H]2CC[C@H](c3cc(OC4CC4)c(Nc4ncc(Cl)c(Nc5cn(C)nc5S(=O)(=O)C(C)C)n4)cc3C)CC2)CC1 [Final product 204]
